ChEMBL document CHEMBL6177998, “Rational Design of Dual Degraders by Incorporating Molecular Glue Structural Features into PROTAC Degraders” (J Med Chem, 2025)
pIC50: −log10 of the molar value. Calls of active or inactive are those of the source. The rule behind the calls is not given here.

Tests used:
[1] = biological target: T1, Protein cereblon/Androgen receptor (Homo sapiens, UniProt P10275+Q96SW2); test: PROTAC activity at CRBN/AR in human 22Rv1 cells assessed as induction of AR degradation at 0.1 uM incubated for 24 hrs by Western blot analysis relative to control; format: cell-based
Target sequence in this assay (P10275 whole entry, looked up): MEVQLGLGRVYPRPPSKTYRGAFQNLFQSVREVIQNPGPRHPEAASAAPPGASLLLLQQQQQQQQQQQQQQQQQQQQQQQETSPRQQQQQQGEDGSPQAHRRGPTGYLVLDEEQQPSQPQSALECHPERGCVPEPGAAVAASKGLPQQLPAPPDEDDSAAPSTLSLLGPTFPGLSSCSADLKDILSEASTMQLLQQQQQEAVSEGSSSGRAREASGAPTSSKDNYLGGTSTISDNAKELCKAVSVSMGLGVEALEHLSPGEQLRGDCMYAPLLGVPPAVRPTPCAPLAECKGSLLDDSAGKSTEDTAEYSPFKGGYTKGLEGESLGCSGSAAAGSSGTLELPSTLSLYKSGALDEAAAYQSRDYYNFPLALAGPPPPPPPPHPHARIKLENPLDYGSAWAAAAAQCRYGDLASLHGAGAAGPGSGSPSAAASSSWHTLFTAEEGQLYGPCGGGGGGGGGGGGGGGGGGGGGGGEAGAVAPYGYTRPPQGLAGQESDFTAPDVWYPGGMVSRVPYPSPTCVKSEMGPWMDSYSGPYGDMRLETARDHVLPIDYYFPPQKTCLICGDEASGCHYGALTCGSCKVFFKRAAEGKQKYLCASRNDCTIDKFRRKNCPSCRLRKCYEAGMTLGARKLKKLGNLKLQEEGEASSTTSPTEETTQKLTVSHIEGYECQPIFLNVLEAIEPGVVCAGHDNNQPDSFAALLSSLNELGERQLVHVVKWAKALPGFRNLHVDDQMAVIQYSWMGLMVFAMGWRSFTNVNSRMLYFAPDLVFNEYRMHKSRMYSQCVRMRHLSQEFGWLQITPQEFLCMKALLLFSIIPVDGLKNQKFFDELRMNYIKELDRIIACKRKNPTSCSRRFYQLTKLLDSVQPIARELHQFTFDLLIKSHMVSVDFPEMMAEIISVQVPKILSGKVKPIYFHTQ
Target sequence in this assay (Q96SW2 whole entry, looked up): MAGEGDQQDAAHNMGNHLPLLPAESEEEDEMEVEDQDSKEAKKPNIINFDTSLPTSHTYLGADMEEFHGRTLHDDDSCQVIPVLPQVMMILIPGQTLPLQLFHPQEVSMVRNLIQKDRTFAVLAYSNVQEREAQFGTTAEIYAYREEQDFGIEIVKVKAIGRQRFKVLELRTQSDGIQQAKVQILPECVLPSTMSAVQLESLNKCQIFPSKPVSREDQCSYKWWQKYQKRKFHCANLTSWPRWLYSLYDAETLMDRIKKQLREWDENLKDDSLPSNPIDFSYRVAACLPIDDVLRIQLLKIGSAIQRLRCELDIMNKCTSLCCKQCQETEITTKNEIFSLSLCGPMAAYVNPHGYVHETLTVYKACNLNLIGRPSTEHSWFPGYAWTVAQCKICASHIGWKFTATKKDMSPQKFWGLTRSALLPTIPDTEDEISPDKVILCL

[2] = biological target: T2, Protein cereblon/Eukaryotic peptide chain release factor GTP-binding subunit ERF3A (Homo sapiens, UniProt Q96SW2+P15170); test: Molecular glue activity at CRBN/GSPT1 in human 22Rv1 cells assessed as induction of GSPT1 degradation at 0.1 uM incubated for 24 hrs by Western blot analysis relative to control; format: cell-based
Target sequence in this assay (P15170 whole entry, looked up): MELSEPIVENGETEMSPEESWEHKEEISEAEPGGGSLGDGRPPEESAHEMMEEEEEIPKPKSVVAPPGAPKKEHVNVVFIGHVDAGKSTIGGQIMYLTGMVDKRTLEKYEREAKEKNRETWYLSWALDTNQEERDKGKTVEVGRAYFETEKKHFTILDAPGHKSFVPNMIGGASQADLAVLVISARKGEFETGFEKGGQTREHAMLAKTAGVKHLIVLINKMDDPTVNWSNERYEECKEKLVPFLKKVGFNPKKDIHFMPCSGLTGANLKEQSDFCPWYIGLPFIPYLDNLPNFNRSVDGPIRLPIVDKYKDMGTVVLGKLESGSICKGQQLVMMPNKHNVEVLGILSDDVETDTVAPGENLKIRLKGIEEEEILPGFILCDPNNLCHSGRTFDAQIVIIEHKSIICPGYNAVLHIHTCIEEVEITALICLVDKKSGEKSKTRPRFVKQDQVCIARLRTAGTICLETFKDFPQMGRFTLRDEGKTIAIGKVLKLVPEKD
Target sequence in this assay (Q96SW2 whole entry, looked up): as the sequence (Q96SW2 whole entry, looked up) above

[3] = biological target: T1, Protein cereblon/Androgen receptor; test: PROTAC activity at CRBN/AR in human 22Rv1 cells assessed as induction of AR degradation at 20 nM incubated for 2 hrs by Western blot analysis (reference value: 0 %); format: cell-based
Target sequence in this assay (P10275 whole entry, looked up): as the sequence (P10275 whole entry, looked up) above
Target sequence in this assay (Q96SW2 whole entry, looked up): as the sequence (Q96SW2 whole entry, looked up) above

[4] = biological target: T1, Protein cereblon/Androgen receptor; test: PROTAC activity at CRBN/AR in human 22Rv1 cells assessed as induction of AR degradation at 20 nM incubated for 36 hrs by Western blot analysis (reference value: 0 %); format: cell-based
Target sequence in this assay (P10275 whole entry, looked up): as the sequence (P10275 whole entry, looked up) above
Target sequence in this assay (Q96SW2 whole entry, looked up): as the sequence (Q96SW2 whole entry, looked up) above

[5] = biological target: T2, Protein cereblon/Eukaryotic peptide chain release factor GTP-binding subunit ERF3A; test: Molecular glue activity at CRBN/GSPT1 in human 22Rv1 cells assessed as induction of GSPT1 degradation at 20 nM incubated for 6 hrs by Western blot analysis (reference value: 0 %); format: cell-based
Target sequence in this assay (P15170 whole entry, looked up): as the sequence (P15170 whole entry, looked up) above
Target sequence in this assay (Q96SW2 whole entry, looked up): as the sequence (Q96SW2 whole entry, looked up) above

[6] = biological target: T1, Protein cereblon/Androgen receptor; test: PROTAC activity at CRBN/AR in human VCaP cells assessed as induction of AR degradation incubated for 24 hrs by Western blot analysis; format: cell-based
[7] = system: Protein cereblon/Androgen receptor (Homo sapiens), P10275+Q96SW2 [UNDEFINED MUTATION]; test: (§1) PROTAC activity at CRBN/Androgen receptor splice variant 7 in human VCaP cells assessed as induction of AR-V7 degradation incubated for 24 hrs by Western blot analysis; format: cell-based
[8] = biological target: T1, Protein cereblon/Androgen receptor; test: as §1; format: cell-based
Target sequence in this assay (P10275 whole entry, looked up, change not shown): as the sequence (P10275 whole entry, looked up) above
Target sequence in this assay (Q96SW2 whole entry, looked up, change not shown): as the sequence (Q96SW2 whole entry, looked up) above

[9] = biological target: T1, Protein cereblon/Androgen receptor; test: PROTAC activity at CRBN/AR in human LNCaP cells assessed as induction of AR degradation incubated for 24 hrs by Western blot analysis; format: cell-based
[10] = biological target: T2, Protein cereblon/Eukaryotic peptide chain release factor GTP-binding subunit ERF3A; test: Molecular glue activity at CRBN/GSPT1 in human LNCaP cells assessed as induction of GSPT1 degradation incubated for 24 hrs by Western blot analysis; format: cell-based
[11] = biological target: T1, Protein cereblon/Androgen receptor; test: PROTAC activity at CRBN/AR in human VCaP cells assessed as induction of AR degradation at 20 nM by Western blot analysis; format: cell-based; settings: time 1-36 hrs
Target sequence in this assay (P10275 whole entry, looked up): as the sequence (P10275 whole entry, looked up) above
Target sequence in this assay (Q96SW2 whole entry, looked up): as the sequence (Q96SW2 whole entry, looked up) above

[12] = biological target: T2, Protein cereblon/Eukaryotic peptide chain release factor GTP-binding subunit ERF3A; test: Molecular glue activity at CRBN/GSPT1 in human LNCaP cells assessed as induction of GSPT1 degradation at 20 nM by Western blot analysis; format: cell-based; settings: time 1-36 hrs
Target sequence in this assay (P15170 whole entry, looked up): as the sequence (P15170 whole entry, looked up) above
Target sequence in this assay (Q96SW2 whole entry, looked up): as the sequence (Q96SW2 whole entry, looked up) above

[13] = system: Protein cereblon/Androgen receptor (Homo sapiens), P10275+Q96SW2 [UNDEFINED MUTATION]; test: PROTAC activity at CRBN/Androgen receptor splice variant 7 in human VCaP cells assessed as induction of AR-V7 degradation by measuring maximal efficacy incubated for 24 hrs by Western blot analysis relative to control; format: cell-based
[14] = biological target: T2, Protein cereblon/Eukaryotic peptide chain release factor GTP-binding subunit ERF3A; test: Molecular glue activity at CRBN/GSPT1 in human 22Rv1 cells assessed as induction of GSPT1 degradation at 50 nM preincubated with MLN4924 followed by compound addition and measured after 12 hrs by Western blot analysis; format: cell-based
Target sequence in this assay (P15170 whole entry, looked up): as the sequence (P15170 whole entry, looked up) above
Target sequence in this assay (Q96SW2 whole entry, looked up): as the sequence (Q96SW2 whole entry, looked up) above

[15] = biological target: T1, Protein cereblon/Androgen receptor; test: PROTAC activity at CRBN/AR in human VCaP cells assessed as induction of AR degradation at 50 nM preincubated with MG132 followed by compound addition and measured after 12 hrs by Western blot analysis; format: cell-based
Target sequence in this assay (P10275 whole entry, looked up): as the sequence (P10275 whole entry, looked up) above
Target sequence in this assay (Q96SW2 whole entry, looked up): as the sequence (Q96SW2 whole entry, looked up) above

[16] = biological target: T1, Protein cereblon/Androgen receptor; test: PROTAC activity at CRBN/AR in human 22Rv1 cells assessed as induction of AR degradation at 20 uM preincubated with EPI-002 for 4 hrs followed by compound addition and measured after 36 hrs by Western blot analysis; format: cell-based
Target sequence in this assay (P10275 whole entry, looked up): as the sequence (P10275 whole entry, looked up) above
Target sequence in this assay (Q96SW2 whole entry, looked up): as the sequence (Q96SW2 whole entry, looked up) above

22Rv1 = test: Induction of GSPT1 degradation in human 22Rv1 cells transfected with CRBN siRNA at 30 nM incubated for 24 hrs by Western blot analysis; format: cell-based
[17] = system: Protein cereblon/Androgen receptor (Homo sapiens), P10275+Q96SW2 [UNDEFINED MUTATION]; test: Binding affinity to CRBN/AR-V7 in human 22Rv1 cells assessed as ternary complex formation incubated for 6 hrs by co-immunoprecipitation based Western blot analysis; format: cell-based
[18] = biological target: T2, Protein cereblon/Eukaryotic peptide chain release factor GTP-binding subunit ERF3A; test: Molecular glue activity at CRBN/GSPT1 in human 22Rv1 cells assessed as induction of GSPT1 degradation at 0.01 uM incubated for 6 hrs by Western blot analysis; format: cell-based
Target sequence in this assay (P15170 whole entry, looked up): as the sequence (P15170 whole entry, looked up) above
Target sequence in this assay (Q96SW2 whole entry, looked up): as the sequence (Q96SW2 whole entry, looked up) above

[19] = biological target: Protein cereblon/Zinc finger protein Helios (Homo sapiens) (UniProt Q96SW2+Q9UKS7); test: Molecular glue activity at CRBN/IKZF2 in human 22Rv1 cells assessed as induction of IKZF2 degradation at 3 uM incubated for 6 hrs by Western blot analysis; format: cell-based
VCaP = test: Antiproliferative activity against AR-dependent human VCaP cells assessed as cell growth inhibition incubated for 72 hrs by Celltiter-lumi luminescent cell viability assay; format: functional, cell-based
[20] = Selectivity ratio of IC50 for antiproliferative activity against AR-independent human DU-145 cells assessed as cell growth inhibition to IC50 for antiproliferative activity against AR-dependent human VCaP cells assessed as cell growth inhibition; format: functional
CWR22R = test: Downregulation of MT-ATP8 gene expression in human 22Rv1 cells at 3 nM incubated for 24 hrs by Volcano plot analysis; format: functional, cell-based
[21] = biological target: T1, Protein cereblon/Androgen receptor; test: PROTAC activity at CRBN/AR in human 22Rv1 cells assessed as decrease in PSA mRNA level at 1 to 3 nM incubated for 24 hrs by qRT-PCR analysis; format: cell-based; settings: dose 1-3 nM
[22] = biological target: T1, Protein cereblon/Androgen receptor; test: PROTAC activity at CRBN/AR in human LNCaP cells assessed as decrease in PSA mRNA level at 10 to 100 nM incubated for 24 hrs by qRT-PCR analysis; format: cell-based; settings: dose 10-100 nM
[23] = biological target: T1, Protein cereblon/Androgen receptor; test: PROTAC activity at CRBN/AR in human Enzalutamide-resistant VCaP cells assessed as induction of androgen receptor degradation at 1 to 300 nM by Western blot analysis; format: cell-based; settings: dose 1-300 nM
[24] = Antiproliferative activity against human Enzalutamide-resistant LNCaP cells assessed as cell growth inhibition incubated for 72 hrs by Celltiter-lumi luminescent cell viability assay; format: functional, cell-based
[25] = Inhibition of AR W741L mutant (unknown origin) transcriptional activity transfected in HEK293T cells co-transfected with PSA-luciferase reporter and pRL-TK assessed as reduction in PSA-luciferase activity incubated for 24 hrs by luminescence based microplate reader analysis; format: cell-based, Homo sapiens
[26] = Half-life in male ICR mouse at 2 mg/kg, iv by LC-MS/MS analysis; format: ADME, organism-based; settings: in vivo
[27] = AUC in male ICR mouse at 2 mg/kg, iv by LC-MS/MS analysis; format: ADME, organism-based; settings: in vivo
[28] = Clearance in male ICR mouse at 2 mg/kg, iv by LC-MS/MS analysis; format: ADME, organism-based; settings: in vivo
[29] = biological target: T1, Protein cereblon/Androgen receptor; test: In vivo PROTAC activity at CRBN/AR in male NOD SCID mouse model xenografted with human LNCaP cells assessed as reduction in androgen receptor level in tumor at 20 mg/kg, po administered daily for 26 days by Western blot analysis; format: functional, organism-based; settings: time 26.0 day
Mus musculus = test: In vivo inhibition of AR transcriptional activity in male NOD SCID mouse model xenografted with human LNCaP cells assessed as reduction in PSA level in tumor at 20 mg/kg, po administered daily for 26 days by ELISA; format: functional, organism-based; settings: time 26.0 day

Chain of Protein cereblon/Androgen receptor (Homo sapiens), P10275+Q96SW2 [UNDEFINED MUTATION] (P10275 whole entry, looked up, change not shown, canonical isoform): as the sequence (P10275 whole entry, looked up) above
Chain of Protein cereblon/Androgen receptor (Homo sapiens), P10275+Q96SW2 [UNDEFINED MUTATION] (Q96SW2 whole entry, looked up, change not shown, canonical isoform): as the sequence (Q96SW2 whole entry, looked up) above
Chain of Protein cereblon/Zinc finger protein Helios (Homo sapiens) (Q96SW2 whole entry, looked up): as above
Chain of Protein cereblon/Zinc finger protein Helios (Homo sapiens) (Q9UKS7 whole entry, looked up): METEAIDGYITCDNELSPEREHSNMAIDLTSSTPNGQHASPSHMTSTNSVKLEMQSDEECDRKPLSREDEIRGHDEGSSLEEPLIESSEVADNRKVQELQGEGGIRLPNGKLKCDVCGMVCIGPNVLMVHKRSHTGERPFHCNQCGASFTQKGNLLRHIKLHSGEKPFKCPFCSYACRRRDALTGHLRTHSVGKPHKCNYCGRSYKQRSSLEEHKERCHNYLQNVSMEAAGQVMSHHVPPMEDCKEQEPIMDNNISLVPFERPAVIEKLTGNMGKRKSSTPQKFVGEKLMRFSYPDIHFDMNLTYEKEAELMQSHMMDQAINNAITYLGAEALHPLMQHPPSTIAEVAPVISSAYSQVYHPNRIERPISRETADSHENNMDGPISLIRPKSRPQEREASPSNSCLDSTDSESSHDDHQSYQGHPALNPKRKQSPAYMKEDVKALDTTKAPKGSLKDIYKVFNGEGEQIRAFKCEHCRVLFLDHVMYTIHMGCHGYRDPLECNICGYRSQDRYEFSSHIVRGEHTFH

Work on `COc1ccc(C(C)(C)c2cc(Cl)c(OCC3CCN(C(=O)CCCCCNc4ccc5c(c4)C(=O)N(C4CCC(=O)NC4=O)C5=O)CC3)c(C#N)c2)cc1` (stereo unspecified) yielded an Activity [1] of 89.9%, an Activity [2] of 93.4% and an Activity [3] of 56.3%. For the same compound, the Activity [4] was 92.1%, the Activity [5] was 98.6% and the Activity [6] was “Dose-dependent-effect”. For the same compound, the DC50 [6] was 2 nM, the Activity [7] was “Dose-dependent-effect” and the DC50 [8] was 2.5 nM. The Activity [9] was “Dose-dependent-effect”, the DC50 [9] was 15.6 nM and the Activity [10] was “Dose-dependent-effect”. For the same compound, the DC50 [10] was 0.9 nM, the Activity [11] was “Time-dependent-effect” and the Activity [12] was “Time-dependent-effect”. For the same compound, the Emax [13] was 77.9%, the Activity [14] was “inactive” and the Activity [15] was “inactive”. For the same compound, the Activity [16] was “inactive”, the Activity (22Rv1) was “inactive” and the Activity [17] was “Active”. For the same compound, the Activity [18] was “Active”, the Activity [19] was “Moderate_effect” and the pIC50 (VCaP) was 8.82. The “Ratio IC50” value [20] was 588, the Activity (CWR22R) was “Active” and the Activity [21] was “Active”. The Activity [22] was “Active”, the Activity [23] was “Active” and the pIC50 [24] was 7.60. The pIC50 [25] was 7.21, the half-life [26] was 54 min and the AUC [27] was 1850 ng·h/mL. The clearance [28] was 18 mL/min/kg, the Activity [29] was “Active” and the inhibition (Mus musculus) was “Active; Superior Activity Than Enzalutamide Treatment Group Observed”.
